According to ChEMBL document CHEMBL4725309, “Potent, non-covalent reversible BTK inhibitors with 8-amino-imidazo[1,5-a]pyrazine core featuring 3-position bicyclic ring substitutes” (Bioorg Med Chem Lett, 2020):

Legend:
[1] = target: T1, Tyrosine-protein kinase BTK (Homo sapiens, UniProt Q06187); assay: Inhibition of BTK in human PBMC assessed as reduction in cell surface CD69 expression preincubated for 1 hr followed by stimulation with goat anti-human IgM F(ab')2 for 18 hrs by immunostaining analysis; assay type: tissue-based
T1 sequence (Q06187 whole entry): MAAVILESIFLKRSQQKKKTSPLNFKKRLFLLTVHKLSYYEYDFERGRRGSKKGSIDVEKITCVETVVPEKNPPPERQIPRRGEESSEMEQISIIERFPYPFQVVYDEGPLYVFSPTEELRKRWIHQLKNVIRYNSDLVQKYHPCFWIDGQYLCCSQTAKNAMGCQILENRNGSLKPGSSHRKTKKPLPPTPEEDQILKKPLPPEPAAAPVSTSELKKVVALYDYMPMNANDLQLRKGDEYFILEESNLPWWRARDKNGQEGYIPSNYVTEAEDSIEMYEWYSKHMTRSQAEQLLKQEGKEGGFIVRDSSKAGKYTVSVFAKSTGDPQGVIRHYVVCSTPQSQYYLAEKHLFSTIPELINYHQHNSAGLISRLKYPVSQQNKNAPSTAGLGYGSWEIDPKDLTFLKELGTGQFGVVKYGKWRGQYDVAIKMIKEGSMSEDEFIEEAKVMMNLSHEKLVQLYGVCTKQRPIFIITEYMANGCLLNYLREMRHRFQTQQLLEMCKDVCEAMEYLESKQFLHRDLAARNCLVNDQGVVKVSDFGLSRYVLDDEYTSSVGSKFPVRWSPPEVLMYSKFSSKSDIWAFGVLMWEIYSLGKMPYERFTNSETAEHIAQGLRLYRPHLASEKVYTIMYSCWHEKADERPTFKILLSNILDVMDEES

[2] = target: T1, Tyrosine-protein kinase BTK; assay: Inhibition of BTK in human whole blood assessed as reduction in cell surface CD69 expression preincubated for 1 hr followed by stimulation with anti-CD79b for 3 hrs by immunostaining analysis; assay type: tissue-based
[3] = target: T2, Cytoplasmic tyrosine-protein kinase BMX (Homo sapiens, UniProt P51813); assay: Inhibition of BMX (unknown origin)
T2 sequence (P51813 whole entry): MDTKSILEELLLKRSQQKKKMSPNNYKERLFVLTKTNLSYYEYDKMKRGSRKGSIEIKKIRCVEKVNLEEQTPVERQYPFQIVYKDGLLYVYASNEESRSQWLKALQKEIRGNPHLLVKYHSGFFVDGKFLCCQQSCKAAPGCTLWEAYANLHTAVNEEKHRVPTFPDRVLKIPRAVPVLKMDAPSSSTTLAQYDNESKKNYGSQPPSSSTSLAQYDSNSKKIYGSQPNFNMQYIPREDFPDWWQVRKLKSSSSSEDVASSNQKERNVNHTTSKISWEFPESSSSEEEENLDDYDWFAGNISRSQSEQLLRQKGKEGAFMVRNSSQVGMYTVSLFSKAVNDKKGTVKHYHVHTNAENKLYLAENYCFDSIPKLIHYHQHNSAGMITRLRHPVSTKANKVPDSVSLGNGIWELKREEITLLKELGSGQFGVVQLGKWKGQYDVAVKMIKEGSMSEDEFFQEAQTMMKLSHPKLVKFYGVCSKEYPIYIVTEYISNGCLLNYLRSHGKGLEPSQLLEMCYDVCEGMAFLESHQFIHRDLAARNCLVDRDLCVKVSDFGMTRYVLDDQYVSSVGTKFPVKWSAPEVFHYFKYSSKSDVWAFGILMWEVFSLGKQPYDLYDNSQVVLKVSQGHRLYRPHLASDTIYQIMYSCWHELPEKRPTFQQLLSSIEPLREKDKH

[4] = target: Tyrosine-protein kinase CSK (Homo sapiens, UniProt P41240); assay: Inhibition of CSK (unknown origin)
[5] = target: Receptor tyrosine-protein kinase erbB-4 (Homo sapiens, UniProt Q15303); assay: Inhibition of ERBB4 (unknown origin)
Receptor tyrosine-protein kinase erbB-4, sequence (Q15303 whole entry): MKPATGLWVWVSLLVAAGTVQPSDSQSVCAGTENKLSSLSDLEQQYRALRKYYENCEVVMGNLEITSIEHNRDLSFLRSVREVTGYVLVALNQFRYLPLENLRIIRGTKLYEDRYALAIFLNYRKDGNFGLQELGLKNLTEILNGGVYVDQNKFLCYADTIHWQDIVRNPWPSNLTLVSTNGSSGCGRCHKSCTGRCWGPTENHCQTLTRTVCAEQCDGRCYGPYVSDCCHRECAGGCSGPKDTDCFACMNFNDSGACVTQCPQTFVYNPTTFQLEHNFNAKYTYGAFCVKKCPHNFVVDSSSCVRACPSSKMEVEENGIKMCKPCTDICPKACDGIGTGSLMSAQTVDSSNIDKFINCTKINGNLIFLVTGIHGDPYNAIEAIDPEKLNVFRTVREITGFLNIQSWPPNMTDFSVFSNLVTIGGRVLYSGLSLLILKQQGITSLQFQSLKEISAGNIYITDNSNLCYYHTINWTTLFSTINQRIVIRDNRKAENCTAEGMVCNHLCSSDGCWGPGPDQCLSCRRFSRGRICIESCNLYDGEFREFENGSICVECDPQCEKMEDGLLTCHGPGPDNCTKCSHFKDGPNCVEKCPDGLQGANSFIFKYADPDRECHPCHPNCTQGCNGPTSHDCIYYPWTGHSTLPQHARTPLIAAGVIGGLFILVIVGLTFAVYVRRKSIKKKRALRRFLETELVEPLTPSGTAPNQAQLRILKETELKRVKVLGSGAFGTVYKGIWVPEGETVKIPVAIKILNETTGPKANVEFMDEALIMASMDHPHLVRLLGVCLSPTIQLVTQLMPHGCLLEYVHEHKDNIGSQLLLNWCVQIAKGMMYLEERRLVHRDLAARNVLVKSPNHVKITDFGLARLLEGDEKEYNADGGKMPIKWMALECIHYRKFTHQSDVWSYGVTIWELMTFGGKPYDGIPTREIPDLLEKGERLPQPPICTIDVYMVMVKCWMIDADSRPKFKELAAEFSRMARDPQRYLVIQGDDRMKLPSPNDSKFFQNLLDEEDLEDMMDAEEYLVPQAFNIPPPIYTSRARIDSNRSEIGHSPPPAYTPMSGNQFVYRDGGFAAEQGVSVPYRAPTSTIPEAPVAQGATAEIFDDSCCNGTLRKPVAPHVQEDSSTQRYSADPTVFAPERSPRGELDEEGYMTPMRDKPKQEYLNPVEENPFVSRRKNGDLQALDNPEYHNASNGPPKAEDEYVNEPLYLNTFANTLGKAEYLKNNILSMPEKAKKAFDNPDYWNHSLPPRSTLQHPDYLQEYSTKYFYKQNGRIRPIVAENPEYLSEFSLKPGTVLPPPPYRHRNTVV

[6] = target: Tyrosine-protein kinase FRK (Homo sapiens, UniProt P42685); assay: Inhibition of FRK (unknown origin)
Tyrosine-protein kinase FRK, sequence (P42685 whole entry): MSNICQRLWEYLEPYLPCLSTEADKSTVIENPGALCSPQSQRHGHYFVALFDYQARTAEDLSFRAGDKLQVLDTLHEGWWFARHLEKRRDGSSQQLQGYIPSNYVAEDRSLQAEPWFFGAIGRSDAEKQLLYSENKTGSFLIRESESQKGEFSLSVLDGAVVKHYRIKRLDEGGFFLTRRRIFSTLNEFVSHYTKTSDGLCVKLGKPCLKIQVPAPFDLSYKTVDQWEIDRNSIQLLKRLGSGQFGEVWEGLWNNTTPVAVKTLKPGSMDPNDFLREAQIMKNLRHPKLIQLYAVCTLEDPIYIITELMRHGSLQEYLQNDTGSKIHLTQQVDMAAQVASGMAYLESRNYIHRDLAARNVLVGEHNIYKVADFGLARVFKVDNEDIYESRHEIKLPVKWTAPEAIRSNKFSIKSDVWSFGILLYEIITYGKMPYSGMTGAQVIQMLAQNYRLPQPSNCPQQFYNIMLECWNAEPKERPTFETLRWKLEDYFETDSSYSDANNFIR

[7] = target: Tyrosine-protein kinase Fyn (Homo sapiens, UniProt P06241); assay: Inhibition of FYN (unknown origin)
Tyrosine-protein kinase Fyn, sequence (P06241 whole entry): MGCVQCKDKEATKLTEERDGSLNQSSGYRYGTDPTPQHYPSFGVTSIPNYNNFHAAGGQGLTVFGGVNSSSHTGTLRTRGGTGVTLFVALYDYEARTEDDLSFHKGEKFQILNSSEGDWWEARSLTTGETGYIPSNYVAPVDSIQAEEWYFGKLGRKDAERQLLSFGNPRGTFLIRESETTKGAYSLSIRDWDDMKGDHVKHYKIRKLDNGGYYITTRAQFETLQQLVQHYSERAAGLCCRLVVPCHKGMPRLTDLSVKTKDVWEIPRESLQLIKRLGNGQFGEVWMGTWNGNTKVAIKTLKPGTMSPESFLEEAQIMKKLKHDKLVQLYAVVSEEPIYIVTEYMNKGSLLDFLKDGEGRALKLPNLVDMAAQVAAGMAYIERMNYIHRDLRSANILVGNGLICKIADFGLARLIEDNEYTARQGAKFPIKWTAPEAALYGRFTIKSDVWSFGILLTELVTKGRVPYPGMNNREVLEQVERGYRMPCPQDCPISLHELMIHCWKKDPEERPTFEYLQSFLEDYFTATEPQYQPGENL

[8] = target: Tyrosine-protein kinase Lck (Homo sapiens, UniProt P06239); assay: Inhibition of LCK (unknown origin)
Tyrosine-protein kinase Lck, sequence (P06239 whole entry): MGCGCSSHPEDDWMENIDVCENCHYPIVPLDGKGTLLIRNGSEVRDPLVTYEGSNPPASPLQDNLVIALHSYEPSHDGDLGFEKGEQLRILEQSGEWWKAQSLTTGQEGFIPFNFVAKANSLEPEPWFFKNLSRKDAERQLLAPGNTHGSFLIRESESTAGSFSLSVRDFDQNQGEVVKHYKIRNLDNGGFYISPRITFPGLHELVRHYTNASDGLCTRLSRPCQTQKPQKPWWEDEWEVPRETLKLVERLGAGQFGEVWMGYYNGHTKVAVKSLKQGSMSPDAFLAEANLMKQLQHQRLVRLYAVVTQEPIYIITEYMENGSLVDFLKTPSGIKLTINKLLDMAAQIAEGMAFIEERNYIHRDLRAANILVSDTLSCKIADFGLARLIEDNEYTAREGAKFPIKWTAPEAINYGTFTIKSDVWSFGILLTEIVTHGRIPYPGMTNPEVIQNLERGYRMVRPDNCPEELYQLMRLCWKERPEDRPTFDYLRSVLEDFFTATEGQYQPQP

[9] = target: Tyrosine-protein kinase Lyn (Homo sapiens, UniProt P07948); assay: Inhibition of LYNB (unknown origin)
Tyrosine-protein kinase Lyn, sequence (P07948 whole entry): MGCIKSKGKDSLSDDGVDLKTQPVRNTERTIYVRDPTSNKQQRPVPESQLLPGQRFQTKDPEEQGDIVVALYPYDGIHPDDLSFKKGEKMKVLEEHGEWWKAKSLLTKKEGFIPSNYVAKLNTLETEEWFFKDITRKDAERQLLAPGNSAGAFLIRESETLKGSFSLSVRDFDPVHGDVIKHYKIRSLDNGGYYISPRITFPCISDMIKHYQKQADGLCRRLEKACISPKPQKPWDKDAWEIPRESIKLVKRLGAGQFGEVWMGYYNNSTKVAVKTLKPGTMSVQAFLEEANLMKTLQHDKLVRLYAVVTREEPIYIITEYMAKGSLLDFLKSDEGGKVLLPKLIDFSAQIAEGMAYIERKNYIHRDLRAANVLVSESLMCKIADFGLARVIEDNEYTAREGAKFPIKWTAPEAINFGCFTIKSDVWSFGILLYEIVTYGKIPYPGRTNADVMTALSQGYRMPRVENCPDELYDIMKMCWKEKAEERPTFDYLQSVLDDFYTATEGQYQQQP

[10] = target: Protein-tyrosine kinase 6 (Homo sapiens, UniProt Q13882); assay: Inhibition of PTK6 (unknown origin)
Protein-tyrosine kinase 6, sequence (Q13882 whole entry): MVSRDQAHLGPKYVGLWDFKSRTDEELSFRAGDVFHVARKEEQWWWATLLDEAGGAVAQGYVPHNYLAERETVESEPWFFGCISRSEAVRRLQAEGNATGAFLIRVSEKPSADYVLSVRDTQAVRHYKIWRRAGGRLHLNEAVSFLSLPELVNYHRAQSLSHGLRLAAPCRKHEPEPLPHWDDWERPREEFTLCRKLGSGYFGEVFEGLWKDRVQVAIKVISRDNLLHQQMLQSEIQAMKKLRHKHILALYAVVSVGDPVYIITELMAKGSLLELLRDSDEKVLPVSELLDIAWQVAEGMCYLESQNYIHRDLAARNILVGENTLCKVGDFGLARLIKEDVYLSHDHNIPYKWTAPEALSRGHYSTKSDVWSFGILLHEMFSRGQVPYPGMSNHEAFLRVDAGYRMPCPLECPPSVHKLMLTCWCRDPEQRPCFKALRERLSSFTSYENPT

[11] = target: Tyrosine-protein kinase Srms (Homo sapiens, UniProt Q9H3Y6); assay: Inhibition of SRMS (unknown origin)
[12] = target: T3, Tyrosine-protein kinase Tec (Homo sapiens, UniProt P42680); assay: Inhibition of TEC (unknown origin)
T3 sequence (P42680 whole entry): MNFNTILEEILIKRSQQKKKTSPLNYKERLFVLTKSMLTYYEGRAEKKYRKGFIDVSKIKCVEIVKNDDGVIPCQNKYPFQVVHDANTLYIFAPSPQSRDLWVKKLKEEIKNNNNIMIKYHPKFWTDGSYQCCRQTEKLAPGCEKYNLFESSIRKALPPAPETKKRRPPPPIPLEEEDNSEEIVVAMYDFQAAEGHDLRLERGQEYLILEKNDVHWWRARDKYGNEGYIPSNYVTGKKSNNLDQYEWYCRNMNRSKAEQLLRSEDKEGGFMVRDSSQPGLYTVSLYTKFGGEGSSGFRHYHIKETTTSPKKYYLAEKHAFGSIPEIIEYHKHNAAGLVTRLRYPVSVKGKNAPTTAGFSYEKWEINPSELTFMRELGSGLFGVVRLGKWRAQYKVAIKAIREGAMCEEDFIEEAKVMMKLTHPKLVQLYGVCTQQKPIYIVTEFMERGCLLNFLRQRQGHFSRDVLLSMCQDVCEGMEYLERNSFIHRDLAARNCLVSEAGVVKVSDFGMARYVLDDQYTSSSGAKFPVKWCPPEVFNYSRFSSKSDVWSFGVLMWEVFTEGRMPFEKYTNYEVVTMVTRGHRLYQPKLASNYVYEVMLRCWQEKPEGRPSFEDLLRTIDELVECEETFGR

[13] = target: Tyrosine-protein kinase Yes (Homo sapiens, UniProt P07947); assay: Inhibition of YES1 (unknown origin)
Tyrosine-protein kinase Yes, sequence (P07947 whole entry): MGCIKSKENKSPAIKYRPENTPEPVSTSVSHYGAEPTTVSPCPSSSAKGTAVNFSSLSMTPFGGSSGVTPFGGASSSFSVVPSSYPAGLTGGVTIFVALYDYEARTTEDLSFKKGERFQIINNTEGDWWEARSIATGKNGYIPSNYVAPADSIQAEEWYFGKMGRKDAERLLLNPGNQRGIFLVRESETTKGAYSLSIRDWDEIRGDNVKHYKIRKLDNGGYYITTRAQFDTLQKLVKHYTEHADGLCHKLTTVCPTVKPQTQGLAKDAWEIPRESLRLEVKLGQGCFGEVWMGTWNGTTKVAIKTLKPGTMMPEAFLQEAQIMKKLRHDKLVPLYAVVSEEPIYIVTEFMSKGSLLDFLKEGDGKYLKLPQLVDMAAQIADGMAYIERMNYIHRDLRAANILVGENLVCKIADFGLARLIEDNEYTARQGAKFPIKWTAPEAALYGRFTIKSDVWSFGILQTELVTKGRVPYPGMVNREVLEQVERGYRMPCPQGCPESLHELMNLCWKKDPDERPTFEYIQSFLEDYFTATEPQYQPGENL

Homo sapiens [14] = organism: Homo sapiens; assay: Selectivity index, ratio of IC50 for BMX (unknown origin) to IC50 for recombinant full length BTK (unknown origin) expressed in baculovirus infected Sf9 cells
Homo sapiens [15] = organism: Homo sapiens; assay: Selectivity index, ratio of IC50 for CSK (unknown origin) to IC50 for recombinant full length BTK (unknown origin) expressed in baculovirus infected Sf9 cells
Homo sapiens [16] = organism: Homo sapiens; assay: Selectivity index, ratio of IC50 for ERBB4 (unknown origin) to IC50 for recombinant full length BTK (unknown origin) expressed in baculovirus infected Sf9 cells
Homo sapiens [17] = organism: Homo sapiens; assay: Selectivity index, ratio of IC50 for LCK (unknown origin) to IC50 for recombinant full length BTK (unknown origin) expressed in baculovirus infected Sf9 cells
Homo sapiens [18] = organism: Homo sapiens; assay: Selectivity index, ratio of IC50 for LYNB (unknown origin) to IC50 for recombinant full length BTK (unknown origin) expressed in baculovirus infected Sf9 cells
Homo sapiens [19] = organism: Homo sapiens; assay: Selectivity index, ratio of IC50 for SRC (unknown origin) to IC50 for recombinant full length BTK (unknown origin) expressed in baculovirus infected Sf9 cells
Homo sapiens [20] = organism: Homo sapiens; assay: Selectivity index, ratio of IC50 for SRMS (unknown origin) to IC50 for recombinant full length BTK (unknown origin) expressed in baculovirus infected Sf9 cells
Homo sapiens [21] = organism: Homo sapiens; assay: Selectivity index, ratio of IC50 for TXK (unknown origin) to IC50 for recombinant full length BTK (unknown origin) expressed in baculovirus infected Sf9 cells
Homo sapiens [22] = organism: Homo sapiens; assay: Selectivity index, ratio of IC50 for YES1 (unknown origin) to IC50 for recombinant full length BTK (unknown origin) expressed in baculovirus infected Sf9 cells
[23] = Clearance in Wistar Han rat at 2 mg/kg, iv; assay type: ADME, organism-based; details: in vivo
[24] = Volume of distribution at steady state in Wistar Han rat at 2 mg/kg, iv; assay type: ADME, organism-based; details: in vivo, read-out: Vdss
[25] = AUC in Wistar Han rat at 2 mg/kg, iv; assay type: ADME, organism-based; design: dose 2 mg/kg; details: in vivo
[26] = Half life in Wistar Han rat at 2 mg/kg, iv; assay type: ADME, organism-based; details: in vivo
[27] = Cmax in Wistar Han rat at 5 mg/kg, po; assay type: ADME, organism-based; design: route oral, dose 5 mg/kg; details: in vivo
[28] = Tmax in Wistar Han rat at 5 mg/kg, po; assay type: ADME, organism-based; details: in vivo

IC50 [1]	IC50 [2]	IC50 [3]	IC50 [4]	IC50 [5]	IC50 [6]	IC50 [7]	IC50 [8]	IC50 [9]	IC50 [10]	IC50 [11]	IC50 [12]	IC50 [13]	Structure (SMILES)	Ratio IC50 (Homo sapiens [14])	Ratio IC50 (Homo sapiens [15])	Ratio IC50 (Homo sapiens [16])	Ratio IC50 (Homo sapiens [17])	Ratio IC50 (Homo sapiens [18])	Ratio IC50 (Homo sapiens [19])	Ratio IC50 (Homo sapiens [20])	also measured
2.5 nM	24 nM	11 nM	162 nM	24 nM	34 nM	87 nM	5.9 nM	20 nM	42 nM	9.1 nM	63 nM	12 nM	Nc1nccn2c([C@@H]3CC[C@H]4CCC(=O)N4C3)nc(-c3ccc(C(=O)Nc4cc(C(F)(F)F)ccn4)cc3)c12	110	1620	240	59	200	330	91	Ratio IC50 (Homo sapiens [21]): 330; Ratio IC50 (Homo sapiens [22]): 120; clearance [23]: 8 mL/min/kg; Vd [24]: 0.78 L/kg; AUC [25]: 7.8 µM·h; half-life [26]: 2.8 h; Cmax [27]: 1300 nM; Tmax [28]: 0.75 h
2.8 nM	58 nM	5.6 nM	350 nM	23 nM	36 nM	212 nM	13 nM	79 nM	24 nM	8 nM	27 nM	30 nM	CC1(C)OC(=O)N2C[C@H](c3nc(-c4ccc(C(=O)Nc5cc(C(F)(F)F)ccn5)cc4)c4c(N)nccn34)CC[C@H]21	47	2900	190	110	660	570	67	Ratio IC50 (Homo sapiens [21]): 125; Ratio IC50 (Homo sapiens [22]): 250; clearance [23]: 26 mL/min/kg; Vd [24]: 5.6 L/kg; AUC [25]: 2.3 µM·h; half-life [26]: 3.6 h; Cmax [27]: 1000 nM; Tmax [28]: 2.5 h

Structure (SMILES)	IC50 [1]	IC50 [2]	IC50 [3]	IC50 [4]	IC50 [5]	IC50 [6]	IC50 [7]	IC50 [8]	IC50 [9]	IC50 [10]	IC50 [11]	IC50 [12]	IC50 [13]	Ratio IC50 (Homo sapiens [14])	Ratio IC50 (Homo sapiens [15])	Ratio IC50 (Homo sapiens [16])	Ratio IC50 (Homo sapiens [17])	Ratio IC50 (Homo sapiens [18])	Ratio IC50 (Homo sapiens [19])	Ratio IC50 (Homo sapiens [20])	also measured
Nc1nccn2c([C@@H]3CC[C@H]4COC(=O)N4C3)nc(-c3ccc(C(=O)Nc4cc(C(F)(F)F)ccn4)cc3)c12	5.8 nM	36 nM	13 nM	290 nM	34 nM	46 nM	18 nM	11 nM	49 nM	50 nM	14 nM	92 nM	35 nM	157	3500	410	132	590	1110	169	Ratio IC50 (Homo sapiens [21]): 554; Ratio IC50 (Homo sapiens [22]): 420; clearance [23]: 17 mL/min/kg; Vd [24]: 1.2 L/kg; AUC [25]: 5.1 µM·h; half-life [26]: 5.1 h; Cmax [27]: 340 nM; Tmax [28]: 0.25 h
